Our source for the TGI and GI50 values is PubChem BioAssay (NCI).

The structures appear in SMILES notation. Several values for one entry are separate records, joined by “and”; a condition that tells them apart may be missing. Equal values may be shown once.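 Values below derive from 48-hour exposures of cells grown in 96-well plates, with endpoints linearly interpolated between the two concentrations bracketing the appropriate inhibition level. GI50: concentration for 50% inhibition of growth. At the TGI there is no net growth.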

Holding throughout (assay): NCI anticancer screen, dose series, 48 h
The test system of experiment [1] is ACHN renal.
In experiment [2] the test system is HCT-116 colon.
For experiment [3], the system named is NCI-H23 lung.
Experiment [4] concerns OVCAR-4 ovarian.
Experiment [5] concerns OVCAR-8 ovarian.
For experiment [6], the system named is SF-268 CNS.
Experiment [7] concerns SK-MEL-2 melanoma.
Experiment [8] concerns SK-MEL-5 melanoma.
Experiment [9] has as its system SNB-75 CNS.
Experiment [10] concerns SW-620 colon.

With `OC(CC1SCCCS1)c1ccccc1` (stereo not given), the TGI in experiment [1], in experiment [2], in [3], in [4], in [5] and in experiment [6] was greater than 100 µM each time. For the same molecule, the TGI in [7], in experiment [8], in [9] and in [10] was greater than 100 µM each time.
Turning to `O=C(Nc1ccc2ncccc2c1)Nc1ccc2ncccc2c1`, the TGI in [1], in experiment [2], in [3], in experiment [4], in experiment [5] and in experiment [6] was greater than 100 µM each time. For the same molecule, the TGI in [7], in experiment [8], in experiment [9] and in experiment [10] was greater than 100 µM throughout.
For `CCCCOC(=O)CNC(=O)OC/C=C/C#CC#C/C=C/COC(=O)NCC(=O)OCCCC`, the GI50 in [1], in experiment [2], in [3], in [4], in experiment [5] and in experiment [6] was greater than 100 µM in each case. The figures for the GI50 in experiment [7], in [8] and in experiment [9] were greater than 100 µM, greater than 100 µM and greater than 10 µM, respectively. The TGI in [1], in experiment [2], in experiment [3], in experiment [4], in experiment [5] and in experiment [6] was greater than 100 µM throughout. In addition, the TGI in experiment [7] was greater than 100 µM; in experiment [8], greater than 100 µM; in [9] it was > 10 µM and 88.8 µM; in experiment [10], greater than 100 µM.
In the case of `O=[N+]([O-])c1cccc(C2=NN(c3ccccc3)C[N+](c3ccc(Br)cc3)=N2)c1`, the TGI in experiment [1], in experiment [2], in experiment [3], in experiment [4], in experiment [5] and in experiment [6] was greater than 100 µM throughout. In addition, the TGI in [7], in experiment [8], in [9] and in experiment [10] was greater than 100 µM in each case.
Turning to `CN(C)CCNC(=O)c1cccc2ccc(-c3ccc(O)cc3)nc12`, the TGI in experiment [1] was 4.98 µM; in [2], 2.78 µM and 10.7 µM; in experiment [3], 10.1 µM and 12.4 µM; in [4], 10.4 µM and 12.2 µM; in experiment [5], 4.13 µM; in [6] it was 17.3 µM and 19.3 µM. The TGI in experiment [7] was 15.9 µM and 9.73 µM; in [8] it was 2.96 µM; in [9], 11.7 µM; in experiment [10] it was 11.1 µM. For the same molecule, the GI50 in [2] was 0.879 µM.
With `COc1cccc(C2CC(C)(O)Oc3cc4c(cc32)OCO4)c1O` (stereo not given), the TGI in experiment [1] is greater than 100 µM; in experiment [2], greater than 69.4 µM; in experiment [3], 92.9 µM; in experiment [4], greater than 100 µM; in experiment [5], 67.8 µM; in experiment [6] it was greater than 91.2 µM. The TGI in experiment [7] was greater than 80.4 µM; in [8], greater than 61.3 µM; in [9] it was 60.2 µM; in [10] it was greater than 100 µM.
Consider `c1ccc2cc(-c3cc4ccccc4s3)ccc2c1`, for which the TGI in experiment [1], in [2], in experiment [3], in experiment [4], in experiment [5] and in experiment [6] was greater than 100 µM in each case. Moreover, the TGI is greater than 100 µM in experiment [7], greater than 100 µM in experiment [8], 93.7 µM in experiment [9] and greater than 100 µM in experiment [10].
